{
  "source": "paper PMC12521730",
  "about": "“Quantitative dual-isotope preclinical SPECT/CT imaging and biodistribution of the mercury-197m/g theranostic pair with [^197m/gHg]HgCl2 and a [^197m/gHg]Hg-tetrathiol complex as a platform for radiopharmaceutical development” (EJNMMI Radiopharmacy and Chemistry, 2025)",
  "origin": "cited, not measured here",
  "key": {"[1]": {"set-up": "method as in Randhawa et al. [2023]", "conditions": "72 h; ref Randhawa et al. [2023]; cited from earlier work"}, "[2]": {"conditions": "24 h; ref Randhawa et al. [2023]; cited from earlier work"}},
  "data": [
    {"smiles": "O=C(CN1CCSCCSCCSCCSCC1)NCc1ccccc1.[Hg+2]", "note": "[NS4-BA complex]", "values": [
      {"measurement": "intact complex when challenged against GSH", "setting": "[1]", "value": "92 ± 1", "unit": "%"},
      {"measurement": "intact complex in human serum", "setting": "[2]", "value": "74 ± 7", "unit": "%"}
    ]}
  ]
}
